The record followed here is ChEMBL document CHEMBL1155786, “Synthesis of 3'-deoxy-3'-C-methyl nucleoside derivatives” (Bioorg Med Chem, 2008).

This assay has as its system Human immunodeficiency virus. Put plainly: Antiviral activity against HIV at 100 uM. Type of assay: functional, organism-based.

SMILES strings stand for the structures. Calls of active or inactive are those of the source. No cut-off for these calls is given here.

`C[C@H]1[C@@H](O)[C@H](n2cnc(C(N)=O)n2)O[C@@H]1CO`: the outcome was inactive.
In the case of `C[C@H]1C[C@H](n2cnc(C(N)=O)n2)O[C@@H]1CO`, the outcome was inactive.
For `C[C@H]1C[C@H](n2cnc3c(N)ncnc32)O[C@@H]1CO` the value was “inactive”.
For `C[C@H]1C[C@H](n2cnc(C(N)=O)n2)O[C@@H]1COC(=O)c1ccccc1` the value was “inactive”; for `Nc1ccn([C@H]2C[C@H](O)[C@@H](CO)O2)c(=O)n1`, “inactive”; for `C[C@H]1C[C@H](n2cnc3c(=O)[nH]c(N)nc32)O[C@@H]1CO`, “inactive”.
For `C[C@H]1[C@@H](O)[C@H](n2cnc(C(N)=O)c2N)O[C@@H]1CO` the value was “inactive”; for `Cc1cn([C@H]2C[C@H](C)[C@@H](CO)O2)c(=O)[nH]c1=O`, “inactive”.
As to `C[C@H]1[C@@H](O)[C@H](n2cnc(C(N)=O)n2)O[C@@H]1COC(=O)c1ccccc1`, the result was inactive.
Next, `C[C@H]1C[C@H](n2ccc(=O)[nH]c2=O)O[C@@H]1CO`: “inactive”.
